In ChEMBL document CHEMBL1201862, “PubChem BioAssay data set” (2004):
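Grown in 96-well plates, cells were treated for 48 hours with each compound at five concentrations. Insufficient inhibition: endpoint recorded as highest concentration tested. GI50: concentration for 50% inhibition of growth.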 The source made the active and inactive calls. Cut-off read from the data, not from the text of the source: active = GI50 up to about 1.1 µM and inactive = higher.

Tests used:
Experiment in all cases: DTP human tumour cell line panel, 48 h
HCT-15 = test system: HCT-15
HL-60 = test system: HL-60
SW-620 = test system: SW-620
RPMI-8226 = test system: RPMI-8226
U-251 = test system: U-251
OVCAR-3 = test system: OVCAR-3
IGROV-1 = test system: IGROV-1
SK-MEL-28 = test system: SK-MEL-28
Malme-3M = test system: Malme-3M
Hs-578T = test system: Hs-578T
SK-MEL-2 = test system: SK-MEL-2
SR = test system: SR
HOP-92 = test system: HOP-92
NCI-H23 = test system: NCI-H23
SK-OV-3 = test system: SK-OV-3
HCC 2998 = test system: HCC 2998
MOLT-4 = test system: MOLT-4
MDA-MB-231 = test system: MDA-MB-231
BT-549 = test system: BT-549
MDA-MB-435 = test system: MDA-MB-435

Compound | GI50 (HCT-15) [µM] | GI50 (HL-60) | GI50 (SW-620) | GI50 (RPMI-8226) | GI50 (U-251) | GI50 (OVCAR-3) | GI50 (IGROV-1) | GI50 (SK-MEL-28) | GI50 (Malme-3M) | GI50 (Hs-578T) | GI50 (SK-MEL-2) | GI50 (SR) | GI50 (HOP-92) | GI50 (NCI-H23) | GI50 (SK-OV-3) | GI50 (HCC 2998) | GI50 (MOLT-4) | GI50 (MDA-MB-231) | GI50 (BT-549) | GI50 (MDA-MB-435)
NS(=O)(=O)c1nnc(NS(=O)(=O)c2ccccc2[N+](=O)[O-])s1 | > 100 | > 100 µM (inactive) | > 100 µM (inactive) | > 100 µM (inactive) | > 100 µM (inactive) | > 100 µM (inactive) | > 100 µM (inactive) | > 100 µM (inactive) | > 100 µM (inactive) | > 100 µM (inactive) | > 100 µM (inactive) | > 100 µM (inactive) | > 100 µM (inactive) | > 100 µM (inactive) | > 100 µM (inactive) | > 100 µM (inactive) | > 100 µM (inactive) | > 100 µM (inactive) | > 100 µM (inactive) | > 100 µM (inactive)
CCc1nc(N)nc(N)c1-c1ccc(NCCN)c([N+](=O)[O-])c1 | 37 | 3.99 µM (inactive) | 5 µM (inactive) | 29.6 µM (inactive) | 9.08 µM (inactive) | 21.8 µM (inactive) | 8.97 µM (inactive) | > 59.3 µM (inactive) | 13.7 µM (inactive) | 89.1 µM (inactive) | 46.7 µM (inactive) | 4 µM (inactive) | 27.6 µM (inactive) | 7.4 µM (inactive) | 82.8 µM (inactive) | 10.4 µM (inactive) | 7.16 µM (inactive) | 20.2 µM (inactive) | 36.1 µM (inactive) | 7.13 µM (inactive)
C[C@]12CC/C(=N\O)C=C1CC[C@@H]1[C@@H]2CC[C@]2(C)C(=N/O)/C(=C/c3ccncc3)C[C@@H]12 | 5.48 | 0.1 µM (active) | 37.4 µM (inactive) | 6.85 µM (inactive) | 29.2 µM (inactive) | 20 µM (inactive) | 53.8 µM (inactive) | 39.8 µM (inactive) | 37.5 µM (inactive) | 86.5 µM (inactive) | 15 µM (inactive) | 12.7 µM (inactive) | 30.5 µM (inactive) | 31.5 µM (inactive) | 51.5 µM (inactive) | 19.1 µM (inactive) | 18.8 µM (inactive) | 20.8 µM (inactive) | 36.1 µM (inactive) | 21.8 µM (inactive)
O=C1C2CC[C@@H]3C(=O)C(Cl)(Cl)[C@@H]3CCC2C1(Cl)Cl (stereo not given in full) | 98.6 | 6.17 µM (inactive) | > 100 µM (inactive) | 32.4 µM (inactive) | > 100 µM (inactive) | 46.6 µM (inactive) | > 100 µM (inactive) | > 100 µM (inactive) | > 100 µM (inactive) | > 100 µM (inactive) | > 100 µM (inactive) | 26.9 µM (inactive) | > 100 µM (inactive) | > 100 µM (inactive) | > 100 µM (inactive) | > 100 µM (inactive) | 26.2 µM (inactive) | > 100 µM (inactive) | > 100 µM (inactive) | > 100 µM (inactive)
CC(C)(C)C1CCC2c3c([nH]c4ccccc34)C3C(=O)N(c4cccc(Cl)c4)C(=O)C3C2C1 (stereo not given) | 14.5 | 3.01 µM (inactive) | 9.62 µM (inactive) | 9.27 µM (inactive) | 13.9 µM (inactive) | 15.1 µM (inactive) | 13.8 µM (inactive) | 14.2 µM (inactive) | 16.6 µM (inactive) | 23.7 µM (inactive) | 17 µM (inactive) | 4.36 µM (inactive) | 5.05 µM (inactive) | 8.49 µM (inactive) | 24.1 µM (inactive) | 3.72 µM (inactive) | 1.85 µM (inactive) | 14.2 µM (inactive) | 21.1 µM (inactive) | 10.5 µM (inactive)
CCn1c2ccc(C(=O)CCCN(C)C)cc2c2cc(C(=O)CCCN(C)C)ccc21 | 1.27 | 1.75 µM (inactive) | 0.53 µM (active) | 1.77 µM (inactive) | 2.24 µM (inactive) | 1.27 µM (inactive) | 0.889 µM (active) | 5.66 µM (inactive) | 2.81 µM (inactive) | 2.32 µM (inactive) | 2.25 µM (inactive) | 1.13 µM (inactive) | 3.03 µM (inactive) | 1.61 µM (inactive) | 5.79 µM (inactive) | 1.69 µM (inactive) | 0.256 µM (active) | 0.851 µM (active) | 3.38 µM (inactive) | 1.27 µM (inactive)
COc1ccc2o/c(=N\c3ccc(F)cc3)c(C(N)=O)cc2c1 | > 100 | > 100 µM (inactive) | > 100 µM (inactive) | > 100 µM (inactive) | 34.7 µM (inactive) | 49.9 µM (inactive) | 79.3 µM (inactive) | > 100 µM (inactive) | 47.1 µM (inactive) | 62.1 µM (inactive) | 22.8 µM (inactive) | > 100 µM (inactive) | 27.4 µM (inactive) | 29.3 µM (inactive) | 17 µM (inactive) | > 100 µM (inactive) | > 100 µM (inactive) | 16.3 µM (inactive) | > 100 µM (inactive) | > 100 µM (inactive)
CC(C)(Cl)C(Br)CCC(C)(Cl)C(Br)CBr (stereo not given) | 24.6 | 19.4 µM (inactive) | 27.5 µM (inactive) | 18.1 µM (inactive) | 24.1 µM (inactive) | 25.1 µM (inactive) | 23.3 µM (inactive) | 29.1 µM (inactive) | 22.4 µM (inactive) | 35.7 µM (inactive) | 18.1 µM (inactive) | 2.58 µM (inactive) | 15.8 µM (inactive) | 20.7 µM (inactive) | 39.2 µM (inactive) | 38.1 µM (inactive) | 41.2 µM (inactive) | 23.3 µM (inactive) | 13.3 µM (inactive) | 26.7 µM (inactive)
O=C(O)c1ccc2c(c1)Cc1cc([N+](=O)[O-])ccc1-2 | > 100 | > 100 µM (inactive) | > 100 µM (inactive) | 0.546 µM (active) | > 100 µM (inactive) | > 100 µM (inactive) | > 100 µM (inactive) | > 100 µM (inactive) | > 100 µM (inactive) | 76.9 µM (inactive) | > 100 µM (inactive) | 86.1 µM (inactive) | 30.5 µM (inactive) | > 100 µM (inactive) | > 100 µM (inactive) | > 100 µM (inactive) | > 100 µM (inactive) | > 100 µM (inactive) | > 100 µM (inactive) | > 100 µM (inactive)
Nc1nn2c(C(Br)Br)cc(C(Br)Br)nc2c1[N+](=O)[O-] | 1.07 | 0.178 µM (active) | 0.244 µM (active) | 0.239 µM (active) | 0.668 µM (active) | 0.437 µM (active) | 1.21 µM (inactive) | 1.53 µM (inactive) | 0.738 µM (active) | 2.36 µM (inactive) | 1.89 µM (inactive) | 0.283 µM (active) | 1.17 µM (inactive) | 1.98 µM (inactive) | 3.43 µM (inactive) | 2.17 µM (inactive) | 0.303 µM (active) | 1.6 µM (inactive) | 0.766 µM (active) | 0.587 µM (active)
COC/C=C\[C@@]1(O)CCCC[C@@H]1CC(OC)OC | 27.4 | 6.98 µM (inactive) | 32.5 µM (inactive) | 22.8 µM (inactive) | 31.8 µM (inactive) | 54.5 µM (inactive) | 32.5 µM (inactive) | 37.4 µM (inactive) | 77.4 µM (inactive) | 37.2 µM (inactive) | > 100 µM (inactive) | 37.3 µM (inactive) | > 100 µM (inactive) | 39.6 µM (inactive) | > 100 µM (inactive) | > 100 µM (inactive) | 9.46 µM (inactive) | > 100 µM (inactive) | 64 µM (inactive) | 28.3 µM (inactive)
O=C(CCCC1Cc2ccccc2C1=O)c1ccccc1 (stereo not given) | 74.8 | 32.4 µM (inactive) | > 100 µM (inactive) | 46.9 µM (inactive) | 38.6 µM (inactive) | 47.4 µM (inactive) | > 100 µM (inactive) | > 100 µM (inactive) | 44.2 µM (inactive) | > 100 µM (inactive) | > 100 µM (inactive) | 41.2 µM (inactive) | 62.8 µM (inactive) | 60.1 µM (inactive) | > 100 µM (inactive) | > 100 µM (inactive) | 33.3 µM (inactive) | > 100 µM (inactive) | 38.6 µM (inactive) | 56.1 µM (inactive)
COc1c2c(cc3c1C1(O)Cc4ccc5c(c4C[N+]1(C)CC3)OCO5)OCO2 (stereo not given) | > 100 | 42.7 µM (inactive) | > 100 µM (inactive) | 85.3 µM (inactive) | > 100 µM (inactive) | > 100 µM (inactive) | > 100 µM (inactive) | > 100 µM (inactive) | > 100 µM (inactive) | > 100 µM (inactive) | > 100 µM (inactive) | 77.8 µM (inactive) | > 100 µM (inactive) | > 100 µM (inactive) | > 100 µM (inactive) | 33 µM (inactive) | 50.8 µM (inactive) | > 100 µM (inactive) | > 100 µM (inactive) | > 100 µM (inactive)
Nc1nc(Cl)cc(NCCC2(CO)CCC2)n1 | > 100 | > 100 µM (inactive) | > 100 µM (inactive) | > 100 µM (inactive) | > 100 µM (inactive) | > 100 µM (inactive) | > 100 µM (inactive) | > 100 µM (inactive) | > 100 µM (inactive) | 45.4 µM (inactive) | > 100 µM (inactive) | > 100 µM (inactive) | 93.3 µM (inactive) | > 100 µM (inactive) | > 100 µM (inactive) | > 100 µM (inactive) | > 100 µM (inactive) | > 100 µM (inactive) | > 100 µM (inactive) | > 100 µM (inactive)
